Assay results: patent publication US20130109581A1, “POSITIVELY CHARGED SPECIES AS BINDING REAGENTS IN THE SEPARATION OF PROTEIN AGGREGATES FROM MONOMERS” (priority 2009, published 2013)
“And” between values parts separate entries of the source, which are not always exact repeats. Equal entries are not always repeated. “Also recorded” adds a separate entry of the source.

Experiments:
[1] = molecular target: T1, oligomeric beta amyloid 1-42 (globulomer) (Homo sapiens, UniProt P05067); test: Misfolded Protein Assay: capture of globulomer spiked into CSF (Example 2); assay type: binding
T1 construct: beta amyloid (1-42) was monomerized with incubation in hexafluoroisopropanol
Description: To assess the ability of these reagents to capture protein aggregates, the previously described Misfolded Protein Assay or MPA (Lau et al., 2007, PNAS, 104: 11551) was used (FIG. 3). In this assay, the capture reagent of interest is attached to beads which are incubated with a sample of interest containing a mixture of normal monomeric and aggregated proteins to allow for capture and then washed to remove unbound material. After this enrichment step, an elution buffer is used to dissociate the captured material from the beads as well as to denature any aggregates. The eluted material is then applied to a sandwich ELISA that is specific for the protein of interest. Strong aggregate-binding reagents acting as effective capture reagents show a high signal from the sample containing a mixture of monomers and aggregates, but not from the control sample, which contains only physiologic levels of monomeric protein.
Beads displaying carboxylic acids were treated with EDC and BMPH to create maleimide-displaying beads, to which thiolated peptides (or other thiolated organic molecules) were added through a Michael addition reaction. Dynal M270 magnetized beads (30 mg/mL bead) displaying carboxylic acids were vortexed and placed into a 15 ml falcon tube. The tube was placed into a magnet, and the supernatant removed. The beads were washed 2 times with 0.1 M MES buffer, pH 5, and then the washing buffer was removed. The coupling solution (33 mM BMPH, 130 mM EDC in MES buffer) was added, and the tube was rocked for 30 minutes at room temperature. After washing in 1×MES, 1× Tris, pH 7.5, the beads were quenched with Tris buffer (50 mM Tris buffer, pH 7.5) for 15 minutes. The beads were then washed 2 times in phosphate buffer and added to 5 mM thiolated ligand in degassed phosphate. The beads were rotated for 21 hours, then washed in 0.1 M phosphate buffer, pH 7, 1×PBS, and stored.
To prepare the globulomer, beta amyloid (1-42) was monomerized with incubation in hexafluoroisopropanol. The hexafluoroisopropanol was removed by vacuum centrifugation. DMSO, PBS, and 2% SDS were then added to the sample. The sample was vortexed and sonicated and then incubated at 37° C. After 6 hours, the sample was diluted with water, vortexed, and incubated at 37° C. for an additional 19 hours. The sample was ultracentrifuged at 135000×g for 1 hour at 4° C., and the supernatant retained. The globulomers were spiked into CSF for the assay.
Aliquots of beads conjugated to various reagents were added to wells of a 96-well plate. Globulomer-spiked CSF in a Tris buffer was added to each well, and the plates were incubated for 1 hour at 37° C. with shaking. For the negative control, normal CSF was used, which is considered to contain only monomers of beta amyloid. The beads were washed with TBST wash buffer, and bound materials were eluted with a denaturing solution (typically 0.1-0.15 N NaOH). A reconditioning buffer was added to the eluate prior to beta amyloid detection via a beta amyloid (1-42) specific sandwich ELISA.
In order to determine the amount of ligand loading, amine quanitation was used. Aliquots of beads were placed in a magnet, and the supernatant removed. 80% phenol in ethanol, 0.2 mM KCN in pyridine/water, and 6% ninhydrin in ethanol was added to each tube. The aliquots were vortexed and heated for 7 minutes at 100° C. After cooling to room temperature, 60% ethanol was added. The tubes were placed in a magnet, and the absorbance of the supernatant at 570 nm was determined. The loading of the beads was determined according to Beer's law, using the extinction coefficient of 15000 M-1 cm-1.
Beads (3 ul or 15 ul) were added to samples containing 0.5 ng/mL globulomer spiked into CSF. […] For PSR1, this limit was ˜5 nmol ligand/mg bead for binding preferentially to globulomer. […]

Aβ(1-42) aggregates = molecular target: T2, Aβ(1-42) aggregates (Homo sapiens, UniProt P05067); assay type: binding
T2 construct: For Aβ(1-42), 10 nL of 10% brain homogenate was added to each well; from tissue; host or cells: Alzheimer's disease patient brain homogenate

tau aggregates = assay type: binding, human
Aβ42 Monomer = molecular target: T3, Aβ42 Monomer (Homo sapiens, UniProt P05067); test: Misfolded Protein Assay, Limit of Detection in CSF: monomer; assay type: binding; conditions: spiked into CSF; LoD = 2× over background
T3 construct: The Ab42 aggregates were prepared as previously described
Description: (§1) The Ab42 aggregates were prepared as previously described: fibrils were prepared per Stine et al (JBC 2003, 278, p11612), globulomers were prepared per Barghorn et al (J Neurology 2005 95 p834), ADDLs were prepared per Lambert et al (PNAS 1998, 95 p6448), and ASPDs were prepared per Noguchi et al (JBC 2009 284 p32895). Normal CSF was pooled from clinically characterized non-demented patient CSF samples. AD CSF was pooled from clinically-characterized AD patient samples. Alzheimer's Disease Brain Homogenate (ADBH) was prepared by sonication of clinically diagnosed AD patient brain samples in 0.2M.sucrose (1:10 w/v).
For the capture assay (Misfolded Protein Assay), aliquots of the beads (30 ul) were added to wells of a 96 well plate, followed by 125 ul of sample in 80:20 CSF:TBSTT. The plate was sealed and incubated for 1 h at 37 C with shaking. The plate was washed with TBST and the residual buffer removed. A denaturing solution (0.1 N NaOH) was added to each well and the plate heated to 80 C. for 30 min with shaking. After cooling the plate to RT, a neutralizing buffer (0.12 M NaH2PO3-0.4% TW20,) was added and the plate shaken briefly at RT. The assay was analyzed using the triplex Mesoscale Discovery ELISA kit for Aβ. The Aβ in the samples eluted from the beads were detected per the manufacturer's protocol. […]

Aβ42 ASPD = molecular target: T4, Aβ42 ASPD (Homo sapiens, UniProt P05067); test: Misfolded Protein Assay, LoD and capture in CSF: ASPD; assay type: binding; conditions: for LoD: spiked into CSF
T4 construct: The Ab42 aggregates were prepared as previously described
Description: as §1
For the capture assay (Misfolded Protein Assay), aliquots of the beads (30 ul) were added to wells of a 96 well plate, followed by 125 ul of sample in 80:20 CSF:TBSTT. The plate was sealed and incubated for 1 h at 37 C with shaking. The plate was washed with TBST and the residual buffer removed. A denaturing solution (0.1 N NaOH) was added to each well and the plate heated to 80 C. for 30 min with shaking. After cooling the plate to RT, a neutralizing buffer (0.12 M NaH2PO3-0.4% TW20,) was added and the plate shaken briefly at RT. The assay was analyzed using the triplex Mesoscale Discovery ELISA kit for Aβ. The Aβ in the samples eluted from the beads were detected per the manufacturer's protocol.
For the Limit of Detection (LoD) studies, serial dilutions of each aggregate were spiked into CSF and were assayed per the protocol described above. The LoD was defined as 2× over background levels.
This pattern minors the capture selectivity observed when these species are tested with 3 ul of PSR1 beads and 1 ng/mL of aggregate.

PrP^Sc = PrP^Sc (Mesocricetus auratus, UniProt P04273)
prion protein = prion protein (Homo sapiens, UniProt P04156)

T4 sequence (P05067 672-713 limits assumed): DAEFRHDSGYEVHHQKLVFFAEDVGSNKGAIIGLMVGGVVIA
T1 sequence (P05067 672-713 limits assumed): as above
PrP^Sc, sequence (P04273 23-231 limits assumed): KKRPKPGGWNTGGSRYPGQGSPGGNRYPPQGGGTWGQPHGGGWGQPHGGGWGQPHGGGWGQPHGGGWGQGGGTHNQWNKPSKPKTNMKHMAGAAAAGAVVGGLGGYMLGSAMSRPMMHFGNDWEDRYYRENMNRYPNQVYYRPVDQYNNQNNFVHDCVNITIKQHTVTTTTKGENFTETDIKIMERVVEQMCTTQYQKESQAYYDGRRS
T3 sequence (P05067 672-713 limits assumed): as the sequence (P05067 672-713 limits assumed) above
T2 sequence (P05067 672-713 limits assumed): as above

Substance: Nab-Nab-Nab-Nbn-Nab-Nbn [PSR1]
- minimum density required for oligomer capture ([1]; 0.5 ng/mL globulomer in CSF, assuming all amines protonated at pH 7.4): roughly 6000 nmol positive charges/m^2
- minimum density required for oligomer capture ([1]; 0.5 ng/mL globulomer in CSF, from 2-5 m^2 surface area per gram bead): approximately 1500 nmol ligand/m^2
- minimum density required for oligomer capture ([1]; 0.5 ng/mL globulomer spiked into CSF, 3 ul or 15 ul beads): ~5 nmol ligand/mg bead
- capture of oligomers (relative light units from the Abeta ELISA) ([1]; globulomer-spiked CSF vs normal CSF, reagent on Dynal M270 beads): capable of enriching oligomers
- sensitivity and specificity for globulomers ([1]; native vs denatured globulomer in CSF, directly conjugated beads vs streptavidin beads with biotin-PSR1): higher sensitivity and specificity for globulomers
- distinguishing control and AD brain homogenates, Abeta (1-42) detected (Aβ(1-42) aggregates): clearly distinguished between control and either vCJD or AD samples
- distinguishing control and AD brain homogenates, Tau detected (tau aggregates): clearly distinguished between control and either vCJD or AD samples
- total Tau signal, AD vs normal brain homogenate (tau aggregates): higher signals in the AD samples relative to the normal brain homogenates; also recorded: highest signal
- LoD (Aβ42 Monomer): ~1000 pg/mL
- capture of ASPD (Aβ42 ASPD; 3 ul of beads and 1 ng/mL of aggregate): 1096
- LoD (Aβ42 ASPD): ~20 amol
- LoD (Aβ42 ASPD; LoD = 2× over background): ~200 pg/mL and 200 pg/mL
- PrP^Sc capture signal (PrP^Sc): Signal was observed with the 100 or 300 ng/mL spike levels
- distinguishing control and vCJD brain homogenates, prion protein detected (prion protein): clearly distinguished between control and either vCJD or AD samples
